The text below walks through data of BindingDB's records for doi:10.1016/j.bioorg.2016.12.009 (Universiti Teknologi Mara (Uitm), 2017).

Molecules are shown by their SMILES.

As usually defined, the IC50 is the point on the concentration scale where inhibition reaches its midpoint.

For the assay, the target named is Alpha-glucosidase MAL12 (Saccharomyces cerevisiae (strain ATCC 204508 / S288c), UniProt P53341). Briefly: Baker's Yeast α-Glucosidase Inhibition Assay. The note with it: pH 6.8; 37 °C. How it is done:
The enzyme inhibition was evaluated according to the method previously reported by Zawawi et al. [Zawawi et al., Bioorg. Chem., 23:3119] with slight modification. Various concentration of test compounds (10 μL) were dissolved in DMSO (ranging from 200 to 6.25 μg/mL) and premixed with 95 μL of 50 mM phosphate buffer (pH 6.8). Then, 25 μL of enzyme (0.0625 U/mL) in phosphate buffer saline was added into each well and the plate was incubated at 37 °C for 10 min. Afterward, 25 μl of PNPG in phosphate buffer saline (5 mM) were added and pre-read of the plate was taken by using a microplate reader (Spectrostar Nano BMG Labtech, Germany). The reaction mixture was then incubated at 37 °C for 30 min and change in absorbance at 405 nm was monitored up to 30 min. For negative control, the test samples were replaced with 10 μL of DMSO and acarbose was used as positive control. All experiments were triplicated and the results were expressed as the mean ± S.E.M of three determinations.

Sequence of Alpha-glucosidase MAL12 (P53341 whole entry): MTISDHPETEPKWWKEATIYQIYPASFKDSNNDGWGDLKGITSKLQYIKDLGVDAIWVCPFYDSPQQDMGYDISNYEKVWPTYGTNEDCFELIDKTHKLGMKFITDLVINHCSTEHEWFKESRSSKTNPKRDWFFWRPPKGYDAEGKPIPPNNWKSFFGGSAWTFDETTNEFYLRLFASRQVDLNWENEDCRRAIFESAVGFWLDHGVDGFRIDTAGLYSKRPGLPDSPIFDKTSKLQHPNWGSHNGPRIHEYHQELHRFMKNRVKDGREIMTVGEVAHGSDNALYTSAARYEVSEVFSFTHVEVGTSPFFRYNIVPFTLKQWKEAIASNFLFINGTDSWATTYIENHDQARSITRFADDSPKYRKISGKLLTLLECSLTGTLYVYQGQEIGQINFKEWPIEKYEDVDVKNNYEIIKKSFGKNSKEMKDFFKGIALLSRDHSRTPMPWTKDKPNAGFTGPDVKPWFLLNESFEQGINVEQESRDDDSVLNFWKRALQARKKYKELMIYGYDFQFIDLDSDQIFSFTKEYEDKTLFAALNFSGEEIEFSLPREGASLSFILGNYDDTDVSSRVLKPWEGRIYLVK

Consider `COc1ccccc1NC(=S)NNC(=O)c1ccc(-c2nc3cc(C)c(C)cc3[nH]2)cc1` [2-(4-(5,6-Dimethyl-1H-benzo[d]imidazol-2-yl)benzoyl)-N-(2-methoxyphenyl)hydrazinecarbothioamide (4)], for which 346 µM corresponded to half-maximal inhibition (IC50).

Molecule `Cc1cc2nc(-c3ccc(C(=O)NNC(=S)Nc4cccc(F)c4)cc3)[nH]c2cc1C` [2-(4-(5,6-Dimethyl-1H-benzo[d]imidazol-2-yl)benzoyl)-N-(3-fluorophenyl)hydrazinecarbothioamide (7)] came in with an IC50 of 247 µM. Take `COc1cccc(NC(=S)NNC(=O)c2ccc(-c3nc4cc(C)c(C)cc4[nH]3)cc2)c1` [2-(4-(5,6-Dimethyl-1H-benzo[d]imidazol-2-yl)benzoyl)-N-(3-methoxyphenyl)hydrazinecarbothioamide (8)]: the IC50 was 71.8 µM.

In turn, `Cc1cc2nc(-c3ccc(C(=O)NNC(=S)Nc4cccc([N+](=O)[O-])c4)cc3)[nH]c2cc1C` [2-(4-(5,6-Dimethyl-1H-benzo[d]imidazol-2-yl)benzoyl)-N-(3-nitrophenyl)hydrazinecarbothioamide (9)] registered an IC50 of 117 µM. The molecule `Cc1cc2nc(-c3ccc(C(=O)NNC(=S)Nc4ccc(C(F)(F)F)cc4)cc3)[nH]c2cc1C` [2-(4-(5,6-Dimethyl-1H-benzo[d]imidazol-2-yl)benzoyl)-N-(4(trifluoromethyl)phenyl)hydrazinecarbothioamide (15)] showed an IC50 of 163 µM. Molecule `Cc1cc2nc(-c3ccc(C(=O)NNC(=S)Nc4ccc(F)cc4)cc3)[nH]c2cc1C` [2-(4-(5,6-Dimethyl-1H-benzo[d]imidazol-2-yl)benzoyl)-N-(4-fluorophenyl)hydrazinecarbothioamide (12)] returned an IC50 of 277 µM. Molecule `COc1ccc(NC(=S)NNC(=O)c2ccc(-c3nc4cc(C)c(C)cc4[nH]3)cc2)cc1` [2-(4-(5,6-Dimethyl-1H-benzo[d]imidazol-2-yl)benzoyl)-N-(4-methoxyphenyl)hydrazinecarbothioamide (13)] showed an IC50 of 305 µM. For `Cc1cc2nc(-c3ccc(C(=O)NNC(=S)Nc4ccc([N+](=O)[O-])cc4)cc3)[nH]c2cc1C` [2-(4-(5,6-Dimethyl-1H-benzo[d]imidazol-2-yl)benzoyl)-N-(4-nitrophenyl)hydrazinecarbothioamide (14)] the value was 35.8 µM; for `Cc1cccc(NC(=S)NNC(=O)c2ccc(-c3nc4cc(C)c(C)cc4[nH]3)cc2)c1` [2-(4-(5,6-Dimethyl-1H-benzo[d]imidazol-2-yl)benzoyl)-N-(m-tolyl)hydrazinecarbothioamide (16)], 219 µM. On to `Cc1ccc(NC(=S)NNC(=O)c2ccc(-c3nc4cc(C)c(C)cc4[nH]3)cc2)cc1` [2-(4-(5,6-Dimethyl-1H-benzo[d]imidazol-2-yl)benzoyl)-N-(p-tolyl)hydrazinecarbothioamide (17)], for which the IC50 was 298 µM. In the case of `Cc1cc2nc(-c3ccc(C(=O)NNC(=S)Nc4ccccc4F)cc3)[nH]c2cc1C` [2-(4-(5,6-dimethyl-1H-benzo[d]imidazol-2-yl)benzoyl)-N-(2-fluorophenyl)hydrazinecarbothioamide (3)], the IC50 turned out to be 231 µM.

Molecule `Cc1cc2nc(-c3ccc(C(=O)NNC(=S)Nc4ccccc4Br)cc3)[nH]c2cc1C` [N-(2-bromophenyl)-2-(4-(5,6-dimethyl-1H-benzo[d]imidazol-2-yl)benzoyl)hydrazinecarbothioamide (1)] returned an IC50 of 129 µM. In the case of `Cc1cc2nc(-c3ccc(C(=O)NNC(=S)Nc4ccccc4Cl)cc3)[nH]c2cc1C` [N-(2-chlorophenyl)-2-(4-(5,6-dimethyl-1H-benzo[d]imidazol-2-yl)benzoyl)hydrazinecarbothioamide (2)], the IC50 was found to be 284 µM. As to `Cc1cc2nc(-c3ccc(C(=O)NNC(=S)Nc4ccc(Cl)c(Cl)c4)cc3)[nH]c2cc1C` [N-(3,4-dichlorophenyl)-2-(4-(5,6-dimethyl-1H-benzo[d]imidazol-2-yl)benzoyl)hydrazinecarbothioamide (5)], the midpoint of inhibition, the IC50, lay at 61.9 µM.

With `Cc1cc2nc(-c3ccc(C(=O)NNC(=S)Nc4cccc(Br)c4)cc3)[nH]c2cc1C` [N-(3-bromophenyl)-2-(4-(5,6-dimethyl-1H-benzo[d]imidazol-2-yl)benzoyl)hydrazinecarbothioamide (6)], it took 178 µM to reach half-maximal inhibition (IC50). `Cc1cc2nc(-c3ccc(C(=O)NNC(=S)Nc4ccc(Br)cc4)cc3)[nH]c2cc1C` [N-(4-bromophenyl)-2-(4-(5,6-dimethyl-1H-benzo[d]imidazol-2-yl)benzoyl)hydrazinecarbothioamide (10)]: 50.6 µM corresponded to half-maximal inhibition (IC50). `Cc1cc2nc(-c3ccc(C(=O)NNC(=S)Nc4ccc(Cl)cc4)cc3)[nH]c2cc1C` [N-(4-chlorophenyl)-2-(4-(5,6-dimethyl-1H-benzo[d]imidazol-2-yl)benzoyl)hydrazinecarbothioamide (11)] had an IC50 of 187 µM.
